Measurements: patent publication US20070082880A1 (priority 2005, published 2007)

Target: T1, human PKCθ full length enzyme (Homo sapiens, UniProt Q04759)
T1 construct: human PKCθ full length enzyme (Panvera Catalog No. P2996); purchased Panvera P2996
Experiment: PKCθ IMAP Assay
Type: biochemical
Conditions: average value when one or more samples were tested; ATP 6 uM, PKCθ 1 nM
How it was run: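 IMAP fluorescence polarization after 20 min with binding beads measured phosphorylation of 100 nM 5FAM-peptide. Reactions held 1 nM full-length human PKCθ, 6 uM ATP, 5% DMSO and DTT-containing buffer, 25 min at room temperature. Compounds tested as 2:1 serial dilutions; controls lacked ATP or enzyme.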

T1 sequence (Q04759 whole entry): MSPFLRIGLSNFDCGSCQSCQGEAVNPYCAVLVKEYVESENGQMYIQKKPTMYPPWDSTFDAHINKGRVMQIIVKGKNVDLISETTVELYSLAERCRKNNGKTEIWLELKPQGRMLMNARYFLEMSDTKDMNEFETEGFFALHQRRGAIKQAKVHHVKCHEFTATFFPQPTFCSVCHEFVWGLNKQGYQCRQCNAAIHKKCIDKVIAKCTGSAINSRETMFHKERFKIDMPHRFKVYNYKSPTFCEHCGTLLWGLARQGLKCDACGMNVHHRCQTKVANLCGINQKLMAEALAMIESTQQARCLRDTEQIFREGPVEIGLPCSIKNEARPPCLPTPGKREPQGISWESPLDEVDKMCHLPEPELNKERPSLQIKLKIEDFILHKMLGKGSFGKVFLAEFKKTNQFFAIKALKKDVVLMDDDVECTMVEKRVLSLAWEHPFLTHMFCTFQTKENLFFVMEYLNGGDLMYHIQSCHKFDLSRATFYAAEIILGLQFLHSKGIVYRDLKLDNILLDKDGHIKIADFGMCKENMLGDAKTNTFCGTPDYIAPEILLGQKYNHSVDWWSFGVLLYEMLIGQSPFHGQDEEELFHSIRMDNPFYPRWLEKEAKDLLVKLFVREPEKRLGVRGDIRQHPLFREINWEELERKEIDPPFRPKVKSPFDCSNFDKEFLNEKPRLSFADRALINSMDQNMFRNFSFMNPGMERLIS

IC50 [nM]	Structure (SMILES)
23	Cc1c(Nc2c(C#N)cnc3sc(/C=C/CN4CCCC4)cc23)ccc2[nH]ccc12 [Compound 276, 4-[(4-methyl-1H-indol-5-yl)amino]-2-[(1E)-3-pyrrolidin-1-ylprop-1-en-1-yl]thieno[2,3-b]pyridine-5-carbonitrile]
304	CN1CCN(C/C=C/c2cc3c(Nc4ccc5[nH]ccc5c4)c(C#N)cnc3s2)CC1 [Compound 277, 4-(1H-indol-5-ylamino)-2-[(1E)-3-(4-methylpiperazin-1-yl)prop-1-en-1-yl]thieno[2,3-b]pyridine-5-carbonitrile]
12	Cc1c(Nc2c(C#N)cnc3sc(/C=C/CN4CCN(C)CC4)cc23)ccc2[nH]ccc12 [Compound 278, 4-[(4-methyl-1H-indol-5-yl)amino]-2-[(1E)-3-(4-methylpiperazin-1-yl)prop-1-en-1-yl]thieno[2,3-b]pyridine-5-carbonitrile]
17	Cc1c(Nc2c(C#N)cnc3sc(/C=C/CN4CCN(C)CC4)c(C)c23)ccc2[nH]ccc12 [Compound 279, 3-methyl-4-[(4-methyl-1H-indol-5-yl)amino]-2-[(1E)-3-(4-methylpiperazin-1-yl)prop-1-en-1-yl]thieno[2,3-b]pyridine-5-carbonitrile]
23	CCOC(=O)/C=C/c1cc2c(Nc3ccc4[nH]ccc4c3C)c(C#N)cnc2s1 [Compound 282, ethyl (2E)-3-{5-cyano-4-[(4-methyl-1H-indol-5-yl)amino]thieno[2,3-b]pyridin-2-yl}acrylate]
314	Cc1c(Nc2c(C#N)cnc3sc(/C=C/C(=O)OC(C)(C)C)cc23)ccc2[nH]ccc12 [Compound 286, tert-butyl (2E)-3-{5-cyano-4-[(4-methyl-1H-indol-5-yl)amino]thieno[2,3-b]pyridin-2-yl}acrylate]
130	N#Cc1cnc2sc(/C=C/C(=O)N3CCCC3)cc2c1Nc1ccc2[nH]ccc2c1 [Compound 288, 4-(1H-indol-5-ylamino)-2-[(1E)-3-oxo-3-pyrrolidin-1-ylprop-1-en-1-yl]thieno[2,3-b]pyridine-5-carbonitrile]
2070	N#Cc1cnc2sc(/C=C/C(=O)NCCO)cc2c1Nc1ccc2[nH]ccc2c1 [Compound 289, (2E)-3-[5-cyano-4-(1H-indol-5-ylamino)thieno[2,3-b]pyridin-2-yl]-N-(2-hydroxyethyl)acrylamide]
330	CN1CCN(C(=O)/C=C/c2cc3c(Nc4ccc5[nH]ccc5c4)c(C#N)cnc3s2)CC1 [Compound 290, 4-(1H-indol-5-ylamino)-2-[(1E)-3-(4-methylpiperazin-1-yl)-3-oxoprop-1-en-1-yl]thieno[2,3-b]pyridine-5-carbonitrile]
105	CC1CCCN1C(=O)/C=C/c1cc2c(Nc3ccc4[nH]ccc4c3)c(C#N)cnc2s1 (stereo not drawn) [Compound 291, 4-(1H-indol-5-ylamino)-2-[(1E)-3-(2-methylpyrrolidin-1-yl)-3-oxoprop-1-en-1-yl]thieno[2,3-b]pyridine-5-carbonitrile]
183	N#Cc1cnc2sc(/C=C/C(N)=O)cc2c1Nc1ccc2[nH]ccc2c1 [Compound 292, (2E)-3-[5-cyano-4-(1H-indol-5-ylamino)thieno[2,3-b]pyridin-2-yl]acrylamide]
33600	N#Cc1cnc2sc(/C=C/C(=O)Nc3cccnc3)cc2c1Nc1ccc2[nH]ccc2c1 [Compound 293, (2E)-3-[5-cyano-4-(1H-indol-5-ylamino)thieno[2,3-b]pyridin-2-yl]-N-pyridin-3-ylacrylamide]
4	Cc1c(Nc2c(C#N)cnc3sc(/C=C/C(=O)N4CCCC4)cc23)ccc2[nH]ccc12 [Compound 294, 4-[(4-methyl-1H-indol-5-yl)amino]-2-[(1E)-3-oxo-3-pyrrolidin-1-ylprop-1-en-1-yl]thieno[2,3-b]pyridine-5-carbonitrile]
43	Cc1c(Nc2c(C#N)cnc3sc(/C=C/C(=O)N4CCN(C)CC4)cc23)ccc2[nH]ccc12 [Compound 295, 4-[(4-methyl-1H-indol-5-yl)amino]-2-[(1E)-3-(4-methylpiperazin-1-yl)-3-oxoprop-1-en-1-yl]thieno[2,3-b]pyridine-5-carbonitrile]
17	Cc1c(Nc2c(C#N)cnc3sc(/C=C/C(=O)Nc4cccnc4)cc23)ccc2[nH]ccc12 [Compound 296, (2E)-3-{5-cyano-4-[(4-methyl-1H-indol-5-yl)amino]thieno[2,3-b]pyridin-2-yl}-N-pyridin-3-ylacrylamide]
12	Cc1c(Nc2c(C#N)cnc3sc(/C=C/C(N)=O)cc23)ccc2[nH]ccc12 [Compound 297, (2E)-3-{5-cyano-4-[(4-methyl-1H-indol-5-yl)amino]thieno[2,3-b]pyridin-2-yl}acrylamide]
48	Cc1c(Nc2c(C#N)cnc3sc(/C=C/C(=O)N4CCCCC4)cc23)ccc2[nH]ccc12 [Compound 298, 4-[(4-methyl-1H-indol-5-yl)amino]-2-[(1E)-3-oxo-3-piperidin-1-ylprop-1-en-1-yl]thieno[2,3-b]pyridine-5-carbonitrile]

IC50 [nM]	Structure (SMILES)
32	Cc1c(Nc2c(C#N)cnc3sc(/C=C/C(=O)N4CCC[C@H]4CN4CCCC4)cc23)ccc2[nH]ccc12 [Compound 299, 4-[(4-methyl-1H-indol-5-yl)amino]-2-{(1E)-3-oxo-3-[(2S)-2-(pyrrolidin-1-ylmethyl)pyrrolidin-1-yl]prop-1-en-1-yl}thieno[2,3-b]pyridine-5-carbonitrile]
175	Cc1c(Nc2c(C#N)cnc3sc(/C=C/C(=O)N4CC[C@@H](N(C)C)C4)cc23)ccc2[nH]ccc12 [Compound 300, 2-{(1E)-3-[(3R)-3-(dimethylamino)pyrrolidin-1-yl]-3-oxoprop-1-en-1-yl}-4-[(4-methyl-1H-indol-5-yl)amino]thieno[2,3-b]pyridine-5-carbonitrile]
171	Cc1c(Nc2c(C#N)cnc3sc(/C=C/C(=O)N4CC[C@H](N(C)C)C4)cc23)ccc2[nH]ccc12 [Compound 301, 2-{(1E)-3-[(3S)-3-(dimethylamino)pyrrolidin-1-yl]-3-oxoprop-1-en-1-yl}-4-[(4-methyl-1H-indol-5-yl)amino]thieno[2,3-b]pyridine-5-carbonitrile]
4	Cc1c(Nc2c(C#N)cnc3sc(/C=C/C(=O)N4CCCC4)c(C)c23)ccc2[nH]ccc12 [Compound 302, 3-methyl-4-[(4-methyl-1H-indol-5-yl)amino]-2-[(1E)-3-oxo-3-pyrrolidin-1-ylprop-1-en-1-yl]thieno[2,3-b]pyridine-5-carbonitrile]
111	Cc1c(Nc2c(C#N)cnc3sc(/C=C/C(=O)Nc4ccccc4)cc23)ccc2[nH]ccc12 [Compound 303, (2E)-3-{5-cyano-4-[(4-methyl-1H-indol-5-yl)amino]thieno[2,3-b]pyridin-2-yl}-N-phenylacrylamide]
43	Cc1c(Nc2c(C#N)cnc3sc(/C=C/C(=O)Nc4ccncc4)cc23)ccc2[nH]ccc12 [Compound 304, (2E)-3-{5-cyano-4-[(4-methyl-1H-indol-5-yl)amino]thieno[2,3-b]pyridin-2-yl}-N-pyridin-4-ylacrylamide]
2	Cc1c(Nc2c(C#N)cnc3sc(/C=C/C(=O)N(C)C)cc23)ccc2[nH]ccc12 [Compound 305, (2E)-3-{5-cyano-4-[(4-methyl-1H-indol-5-yl)amino]thieno[2,3-b]pyridin-2-yl}-N,N-dimethylacrylamide]
2	CCN(CC)C(=O)/C=C/c1cc2c(Nc3ccc4[nH]ccc4c3C)c(C#N)cnc2s1 [Compound 306, (2E)-3-{5-cyano-4-[(4-methyl-1H-indol-5-yl)amino]thieno[2,3-b]pyridin-2-yl}-N,N-diethylacrylamide]
15	CCNC(=O)/C=C/c1cc2c(Nc3ccc4[nH]ccc4c3C)c(C#N)cnc2s1 [Compound 307, (2E)-3-{5-cyano-4-[(4-methyl-1H-indol-5-yl)amino]thieno[2,3-b]pyridin-2-yl}-N-ethylacrylamide]
48	COCCNC(=O)/C=C/c1cc2c(Nc3ccc4[nH]ccc4c3C)c(C#N)cnc2s1 [Compound 308, (2E)-3-{5-cyano-4-[(4-methyl-1H-indol-5-yl)amino]thieno[2,3-b]pyridin-2-yl}-N-(2-methoxyethyl)acrylamide]
53	Cc1c(Nc2c(C#N)cnc3sc(/C=C/C(=O)N4CCOCC4)cc23)ccc2[nH]ccc12 [Compound 309, 4-[(4-methyl-1H-indol-5-yl)amino]-2-[(1E)-3-morpholin-4-yl-3-oxoprop-1-en-1-yl]thieno[2,3-b]pyridine-5-carbonitrile]
41	Cc1c(Nc2c(C#N)cnc3sc(/C=C/C(=O)N4CCC(O)C4)cc23)ccc2[nH]ccc12 (stereo not drawn) [Compound 310, 2-[(1E)-3-(3-hydroxypyrrolidin-1-yl)-3-oxoprop-1-en-1-yl]-4-[(4-methyl-1H-indol-5-yl)amino]thieno[2,3-b]pyridine-5-carbonitrile]
88	Cc1c(Nc2c(C#N)cnc3sc(/C=C/C(=O)N4CCNCC4)cc23)ccc2[nH]ccc12 [Compound 311, 4-[(4-methyl-1H-indol-5-yl)amino]-2-[(1E)-3-oxo-3-piperazin-1-ylprop-1-en-1-yl]thieno[2,3-b]pyridine-5-carbonitrile]
151	Cc1c(Nc2c(C#N)cnc3sc(/C=C/C(=O)N(C)CCN(C)C)cc23)ccc2[nH]ccc12 [Compound 312, (2E)-3-{5-cyano-4-[(4-methyl-1H-indol-5-yl)amino]thieno[2,3-b]pyridin-2-yl}-N-[2-(dimethylamino)ethyl]-N-methylacrylamide]
104	Cc1c(Nc2c(C#N)cnc3sc(/C=C/C(=O)NN(C)C)cc23)ccc2[nH]ccc12 [Compound 313, (2E)-3-{5-cyano-4-[(4-methyl-1H-indol-5-yl)amino]thieno[2,3-b]pyridin-2-yl}-N′,N′-dimethylacrylohydrazide]
375	Cc1c(Nc2c(C#N)cnc3sc(/C=C/C(=O)NN4CCCC4)cc23)ccc2[nH]ccc12 [Compound 314, (2E)-3-{5-cyano-4-[(4-methyl-1H-indol-5-yl)amino]thieno[2,3-b]pyridin-2-yl}-N-pyrrolidin-1-ylacrylamide]
